Read-outs that look alike come from different tables or passages of the source.

Experimental findings from US20240246944A1, “AMINO HETEROARYL COMPOUNDS AND COMPOSITIONS” (Anrui Biomedical Technology (Guangzhou) Co., Ltd., priority 2021, published 2024) are described below.

The subject of one data set is IL-2 reporter (JAK1/3). The experiment in a line: IL-2 reporter assay in HEK-Blue IL-2 cells. Type of data set: cell-based. As to conditions: HEK-Blue. The procedure:
IL-2 reporter assay. Seed HEK-Blue™ IL-2 Cells (1-3×10^4 cells/well/[…]) to 96 cell plate with DMEM (10% HFBS+1% PS) and incubate overnight at 5% CO2&37° C. Diluent compounds in DMSO. Three times dilution and 10 doses. Add compounds to cell plate and incubate 1 h at 5% CO2&37° C. Add IL-2 (1 ng/mL) to cell plate and incubate overnight at 5% CO2&37° C. Prepare QUANTI-Blue Solution: add 100 μl of QB reagent and 100 μl of QB buffer to 9800 μl sterile water. Use cell supernatant and QUANTI-Blue solution in proportion of 1 to 10, incubate 2 h at 37° C. Read OD630.
Background: Reporter assays use an easily measured gene product as a stand-in for the process of interest.

The target of a further data set is Jak1 JH2 (Homo sapiens (Human), UniProt P23458). Briefly: Jak1 JH2 HTRF binding. As to conditions: biochemical assay. For orientation: TR-FRET usually uses a lanthanide donor and a delayed reading to cut background.
In data set [1] the test system is IL-23 reporter (JAK2/Tyk2). Briefly: IL-23 induced STAT3 QUANTI-Blue reporter assay in HEK-Blue IL-23 cells. It counts as cell-based. The procedure:
Biological Example 2. IL-23 Induced STAT3 QUANTI-Blue in HEK-Blue™ IL-23 Cells
HEK-Blue™ IL-23 cells were prepared at 2×10^5 cells/ml for adding 5000 cell/well and incubate plates containing compounds+cells for 1 hour at 37° C. Prepare IL-23 (treatment at final conc. 0.1 ng/mL) during incubation and add 2 ul per well of prepared cytokine in media to appropriate wells. The plate was incubated for overnight at 37° C. The next day, QUANTI-Blue solution was prepared. 18 ul of QUANTI-Blue solution per well was added into a new 384-well clear flat bottom plate, followed by addition of 2 ul of induced and treated HEK-Blue cell supernatant from overnight plate. The plate was incubated at 37° C. for 2 hours and SEAP levels determined.

In data set [2] the test system is IL-12/IL-18 induced IFN-gamma production. The experiment in a line: In vivo inhibition of IL-12/IL-18 induced IFN-gamma. The following applies: mice, oral. The procedure: Biological Example 5. In Vivo Inhibition of IL-12/IL-18 Induced IFN-Gamma
Selected exemplified compounds of the present disclosure (compound Examples 4 and 5) and BMS986165 were dosed orally to female C57BL/6J mice (Charles River). One hour later, 0.05 μg of recombinant rat IL-12 was administered IV. Another hour later following IL-12 administration, 1 μg of recombinant rat IL-18 was administered IV. Three hours later, blood was collected and serum were obtained by centrifugation for analysis of IFNγ by ELISA.

The nature of the next data set: Mouse PK. Type of data set: in vivo.
Another data set concerns IFNγ reporter (JAK1/2). The experiment in a line: IFN-γ reporter assay in HEK-Dual IFN-γ cells. It counts as cell-based. The following applies: cellular assay; read-out: IFNγ reporter assay (JAK1/2) IC50. The procedure:
IFN-γ reporter assay. Seed HEK-Dual™ IFN-γ Cells (1-3×10^4 cells/well/[…]) to 96 cell plate with DMEM (10% HFBS+1% PS) and incubate overnight at 5% CO2&37° C. Diluent compounds in DMSO. Three times dilution and 10 doses. Add compounds to cell plate and incubate 1 h at 5% CO2&37° C. Add IFN-γ (0.1 ng/mL) to cell plate and incubate overnight at 5% CO2&37° C. Prepare QUANTI-Blue Solution: add 100 μl of QB reagent and 100 μl of QB buffer to 9800 μl sterile water. Use cell supernatant and QUANTI-Blue solution in proportion of 1 to 10, incubate 2 h at 37° C. Read OD630.

The nature of another data set: Dog PK. It counts as in vivo, Beagle dogs. The procedure: Biological Example 7. Dog PK
Selected exemplified compounds of the present disclosure were also tested in dog for pharmacokinetic studies. The Beagle dogs were fasted overnight with free access to drinking water prior to treatment. All the dosing solutions were freshly prepared prior to dose administration. In intravenous administration animal group were given a single dose of compound at 1 mg·kg-1. Blood for plasma samples were collected at pre-dose, 5, 15, 30 min, 1, 2, 4, 8, 12 and 24 h through vein into tubes anticoagulated with EDTA-K2. In intragastric administration animal group were given a single dose of compound at 5 mg·kg-1. Blood for plasma samples (˜0.5 mL) were collected at pre-dose, 15, 30 min, 1, 2, 4, 8, 12 and 24 h post-dose through vein into tubes anticoagulated with EDTA-K2. Blood samples were inverted several times and were held on wet ice pending centrifugation. The samples were centrifuged (within 20 minutes of collection) in a centrifuge set at 4° C. for 10 minutes at 1500-1600 g to obtain plasma. Plasma samples were transferred and frozen immediately after separation and stored in a freezer set at below −70° C. prior to analysis.

The next data set deals with IL-23-induced psoriasis. Briefly: In vivo mouse psoriasis model induced by human IL-23. As to conditions: mice, 7.5, 15 and 30 mg/kg BID oral gavage. The procedure:
Biological Example 6. In Vivo Mouse Psoriasis Model Selected exemplified compounds of the present disclosure were also tested in a mouse psoriasis model induced by human IL-23. Psoriasis was induced in 6-8-week-old C57BL/6J female mice (Charles River) by intradermal injection of recombinant human IL-23 into the left ear. IL-23 injections were administered every other day from day 1 through day 9 of the study. Selected compounds at 7.5, 15, and 30 mg/kg, with 15 mg/kg BMS986165 as positive control were dosed BID by oral gavage, with the first dose given the evening before first IL-23 injection. Ear thickness was measured every other day, prior to the ear injection.

In data set [3] the test system is IFNα/β reporter (JAK1/Tyk2). Briefly: IFN-alpha/beta reporter assay in HEK-Blue IFN-a/b cells. Type of data set: cell-based. As to conditions: cellular assay. The procedure:
IFN-alpha/beta reporter assay. Seed HEK-Blue™ IFN-a/b cells (1-3×10^4 cells/well/[…]) to 96 cell plate with DMEM (10% HFBS+1% PS) and incubate overnight at 5% CO2&37° C. Diluent compounds in DMSO. Three times dilution and 10 doses. Add compounds to cell plate and incubate 1 h at 5% CO2&37° C. Add IFN-alpha/beta (5 U/ml) to cell plate and incubate overnight at 5% CO2&37° C. Prepare QUANTI-Blue Solution: add 100 μl of QB reagent and 100 μl of QB buffer to 9800 μl sterile water. Use cell supernatant and QUANTI-Blue solution in proportion of 1 to 10, incubate 2 h at 37° C. Read OD630.

Sequence of Jak1 JH2 (P23458 583-855): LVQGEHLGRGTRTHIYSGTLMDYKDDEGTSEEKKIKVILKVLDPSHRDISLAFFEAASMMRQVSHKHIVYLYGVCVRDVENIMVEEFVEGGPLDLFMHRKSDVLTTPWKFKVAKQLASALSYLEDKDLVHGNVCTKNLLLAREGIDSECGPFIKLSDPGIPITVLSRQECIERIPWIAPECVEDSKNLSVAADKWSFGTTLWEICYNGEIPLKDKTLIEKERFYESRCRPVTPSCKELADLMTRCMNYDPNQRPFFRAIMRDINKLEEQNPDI

With `[2H]C([2H])([2H])NC(=O)c1nnc(NC(=O)C2CC2)cc1Nc1cccc(-n2cnc(C)n2)c1OC` [Example 5, 6-(cyclopropanecarboxamido)-4-((2-methoxy-3-(3-methyl-1H-1,2,4-triazol-1-yl)phenyl)amino)-N-(methyl-d3)pyridazine-3-carboxamide], the IC50 in the data set on IL-2 reporter (JAK1/3) (cellular assay, read-out: IL-2 reporter assay (JAK1/3) IC50) was more than 10000 nM; in the data set with IL-2 reporter (JAK1/3) (read-out: IC50 in IL-2 reporter assay (JAK1/3)) it was more than 10000 nM; on Jak1 JH2 it was 13.2 nM; in data set [1] (HEK-Blue IL-23, HEK-Blue IL-23 cells, Table 2, read-out: IL23 reporter assay_IC50) it was 6 nM; in data set [1] (HEK-Blue IL-23, cellular assay, Table 3 and text, read-out: IL-23 reporter assay (JAK2/Tyk2) IC50), approximately 6 nM; in data set [1] (cellular assay, Table 3 and text, read-out: IL-23 reporter assay (JAK2/Tyk2) IC50), 6.1 nM. In addition, the IC50 with IFNγ reporter (JAK1/2) was more than 10000 nM; in data set [3] (HEK-Blue) it was approximately 5 nM; in data set [3], 4.6 nM. Also, the “inhibition of IFNγ production (reduction compared to vehicle treated group)” value in [2] (10 mpk) was “greater than 93%”. Further, in data set [2] (positive control BMS986165), the “inhibition of IL-12/IL-18 induced IFNγ production, result in words” value is recorded as “efficacy similar to the positive control tested”. For the same compound, the “mouse PK profile compared to BMS986165, in words” value in the data set “Mouse PK” is “about the same with BMS986165”. The “pharmacokinetic profile in dog compared to BMS986165, in words” value in “Dog PK” is recorded as “superior pharmacokinetic profile in dog compared to BMS986165”. Moreover, the AUC(0-t) in the data set “Dog PK” (beagle, plasma, intravenous, 1 mg/kg single dose, read-out: AUC0-t (IV)) was 6.4 µM·h; in “Dog PK” (beagle, plasma, po, intragastric, 5 mg/kg single dose, read-out: AUC0-t (PO)) it was 47.5 µM·h. The peak level in “Dog PK” (beagle, plasma, po, intragastric, 5 mg/kg single dose) (Cmax) was 7.87 µM. Besides, the “protection from IL-23-induced psoriasis (ear thickness), result in words” value with IL-23-induced psoriasis is reported as “dose-dependently protect mice from IL-23-induced psoriasis”.
